Test results from the supplement of paper PMC11061612.

How the values were obtained:
Test in all cases: Bliss excess, mean over the matrix (fraction); higher = more synergy
[1] = tested on: DU-145 (Prostate Carcinoma)
Method in brief: (§1)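 After 24 hours at 37°C and 5% CO2 in 1536-well plates, cells in DMEM/F12 or RPMI plus 10% FBS received two-drug dose matrices for 72 hours. Viability came from CellTiter-Glo 2.0 luminescence and was scaled as inhibition, anchored at 0 by vehicle wells and at 1 by blank wells. Combination Emax is taken as the second-highest inhibition in the matrix, and Bliss excess as the observed combination effect less EA + EB − EA·EB, with EA and EB the single-agent effects.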

[2] = tested on: HAL-01 (B-Lymphoblastic Leukemia)
Method in brief: as §1

[3] = tested on: MDA-MB-453 (Breast Carcinoma)
Method in brief: as §1

[4] = tested on: SW982 (Other Solid Carcinomas)
Method in brief: as §1

[5] = tested on: COLO-668 (Small Cell Lung Carcinoma)
Method in brief: as §1

[6] = tested on: EFO-21 (Ovarian Carcinoma)
Method in brief: as §1

[7] = tested on: NCI-H1355 (Lung Adenocarcinoma)
Method in brief: as §1

SK-N-AS (Neuroblastoma) = tested on: SK-N-AS (Neuroblastoma)
Method in brief: as §1

[8] = tested on: SW872 (Other Solid Carcinomas)
Method in brief: as §1

[9] = tested on: OE33 (Esophageal Adenocarcinoma)
Method in brief: as §1

[10] = tested on: NCI-H522 (Lung Adenocarcinoma)
Method in brief: as §1

[11] = tested on: SKN (Other Solid Carcinomas)
Method in brief: as §1

[12] = tested on: NCI-H1993 (Lung Adenocarcinoma)
Method in brief: as §1

[13] = tested on: ML-2 (Acute Myeloid Leukemia)
Method in brief: as §1

[14] = tested on: SNU-387 (Hepatocellular Carcinoma)
Method in brief: as §1

[15] = tested on: KGN (Other Solid Carcinomas)
Method in brief: as §1

[16] = tested on: MOG-G-UVW (Low Grade Glioma)
Method in brief: as §1

[17] = tested on: Ca-Ski (Cervical Carcinoma)
Method in brief: as §1

[18] = tested on: Mo-T (Other Blood Carcinomas)
Method in brief: as §1

[19] = tested on: MV-4-11 (Acute Myeloid Leukemia)
Method in brief: as §1

Cc1cc2ncnn2cc1Nc1ncc2c(n1)n(C1CCOCC1)c(=O)n2C [AZD7648] + COc1cc([C@@H]2c3cc4c(cc3[C@@H](O[C@@H]3O[C@@H]5CO[C@@H](C)O[C@H]5[C@H](O)[C@H]3O)[C@H]3COC(=O)[C@H]23)OCO4)cc(OC)c1O [Etoposide] (first compound max 10 µM, 7x7, partner max 10 µM)
Bliss excess [1]: 0.0001
Bliss excess [2]: 0.0962
Bliss excess [3]: -0.0136
Bliss excess [4]: 0.142
Bliss excess [5]: 0.0429
Bliss excess [6]: 0.0562
Bliss excess [7]: 0.0529
Bliss excess (SK-N-AS (Neuroblastoma)): 0.0684
Bliss excess [8]: 0.106
Bliss excess [9]: 0.0247
Bliss excess [10]: 0.0178
Bliss excess [11]: 0.0503
Bliss excess [12]: -0.0083
Bliss excess [13]: 0.125
Bliss excess [14]: -0.0126
Bliss excess [15]: 0.114
Bliss excess [16]: 0.164
Bliss excess [17]: 0.103
Bliss excess [18]: 0.0928
Bliss excess [19]: 0.115

Cc1cc2ncnn2cc1Nc1ncc2c(n1)n(C1CCOCC1)c(=O)n2C [AZD7648] + C[C@@H]1COCCN1C2=NC(=NC(=C2)C3(CC3)[S@](=N)(=O)C)C4=C5C=CNC5=NC=C4 [AZD6738] (first compound max 10 µM, 7x7, partner max 10 µM)
Bliss excess [1]: -0.0068
Bliss excess [2]: -0.0048
Bliss excess [3]: 0.0076
Bliss excess [4]: -0.096
Bliss excess [5]: 0.0093
Bliss excess [6]: 0.053
Bliss excess [7]: 0.0296
Bliss excess (SK-N-AS (Neuroblastoma)): 0.0381
Bliss excess [8]: 0.0801
Bliss excess [9]: -0.0187
Bliss excess [10]: 0.0231
Bliss excess [11]: 0.0038
Bliss excess [12]: 0.0469
Bliss excess [13]: -0.0817
Bliss excess [14]: -0.0236
Bliss excess [15]: 0.0439
Bliss excess [16]: 0.0717
Bliss excess [17]: 0.0404
Bliss excess [18]: -0.0956
Bliss excess [19]: -0.0469

Cc1cc2ncnn2cc1Nc1ncc2c(n1)n(C1CCOCC1)c(=O)n2C [AZD7648] + O=C(c1cc(Cc2n[nH]c(=O)c3ccccc23)ccc1F)N1CCN(C(=O)C2CC2)CC1 [Olaparib] (first compound max 10 µM, 7x7, partner max 10 µM)
Bliss excess [1]: -0.026
Bliss excess [2]: 0.0522
Bliss excess [3]: -0.0144
Bliss excess [4]: 0.0002
Bliss excess [5]: -0.0105
Bliss excess [6]: -0.045
Bliss excess [7]: -0.0538
Bliss excess (SK-N-AS (Neuroblastoma)): -0.0337
Bliss excess [8]: -0.0126
Bliss excess [9]: -0.0359
Bliss excess [10]: -0.0308
Bliss excess [11]: -0.0448
Bliss excess [12]: -0.0321
Bliss excess [13]: -0.0218
Bliss excess [14]: -0.0303
Bliss excess [15]: -0.0384
Bliss excess [16]: -0.0052
Bliss excess [17]: -0.0467
Bliss excess [18]: -0.049
Bliss excess [19]: -0.0389

Cc1nc(Nc2ncc(C(=O)Nc3c(C)cccc3Cl)s2)cc(N2CCN(CCO)CC2)n1 [Dasatinib] + CC(=O)Nc1cccc(-n2c(=O)n(C3CC3)c(=O)c3c(Nc4ccc(I)cc4F)n(C)c(=O)c(C)c32)c1 [Trametinib] (first compound max 2 µM, 7x7, partner max 1 µM)
Bliss excess [1]: -0.0081
Bliss excess [2]: 0.0436
Bliss excess [3]: -0.035
Bliss excess [4]: -0.0319
Bliss excess [5]: -0.0121
Bliss excess [6]: 0.0296
Bliss excess [7]: 0.0328
Bliss excess (SK-N-AS (Neuroblastoma)): 0.0361
Bliss excess [8]: 0.101
Bliss excess [9]: -0.0082
Bliss excess [10]: -0.0082
Bliss excess [11]: -0.0618
Bliss excess [12]: -0.0254
Bliss excess [13]: -0.122
Bliss excess [14]: 0.0213
Bliss excess [15]: -0.0643
Bliss excess [16]: -0.028
Bliss excess [17]: 0.0639
Bliss excess [18]: -0.0835
Bliss excess [19]: -0.128

COc1cc2ncnc(Nc3ccc(F)c(Cl)c3)c2cc1OCCCN1CCOCC1 [Gefitinib] + CC(C)n1c(=O)n(C)c2cnc3cc(F)c(-c4ccc(OCCCN5CCCCC5)nc4)cc3c21 [AZD1390] (first compound max 10 µM, 7x7, partner max 0.3 µM)
Bliss excess [1]: -0.06
Bliss excess [2]: 0
Bliss excess [3]: -0.0171
Bliss excess [4]: -0.0861
Bliss excess [5]: -0.0333
Bliss excess [6]: -0.0875
Bliss excess [7]: -0.039
Bliss excess (SK-N-AS (Neuroblastoma)): -0.0588
Bliss excess [8]: -0.025
Bliss excess [9]: -0.0434
Bliss excess [10]: -0.0551
Bliss excess [11]: -0.0548
Bliss excess [12]: -0.0506
Bliss excess [13]: -0.0237
Bliss excess [14]: -0.0714
Bliss excess [15]: -0.0632
Bliss excess [16]: -0.0401
Bliss excess [17]: -0.0785
Bliss excess [18]: -0.0475
Bliss excess [19]: -0.0534

COc1cc2c(cc1OCCCCCOc1cc3c(cc1OC)C(=O)N1C=C(C)C[C@H]1C=N3)N=C[C@@H]1CC(C)=CN1C2=O [SG3199] + O=C(c1cc(Cc2n[nH]c(=O)c3ccccc23)ccc1F)N1CCN(C(=O)C2CC2)CC1 [Olaparib] (first compound max 0.001 µM, 7x7, partner max 10 µM)
Bliss excess [1]: -0.0361
Bliss excess [2]: 0.0067
Bliss excess [3]: -0.0226
Bliss excess [4]: -0.0195
Bliss excess [5]: -0.0003
Bliss excess [6]: -0.0709
Bliss excess [7]: -0.0503
Bliss excess (SK-N-AS (Neuroblastoma)): -0.0176
Bliss excess [8]: -0.0209
Bliss excess [9]: -0.0276
Bliss excess [10]: -0.0245
Bliss excess [11]: -0.0373
Bliss excess [12]: -0.0352
Bliss excess [13]: 0.0179
Bliss excess [14]: -0.0533
Bliss excess [15]: -0.04
Bliss excess [16]: -0.0081
Bliss excess [17]: -0.0425
Bliss excess [18]: 0.0118
Bliss excess [19]: 0.0066

N#Cc1cnc(Nc2cc(NC[C@H]3CNCCO3)c(C(F)(F)F)cn2)cn1 [SRA737] + CCc1c2c(nc3ccc(O)cc13)-c1cc3c(c(=O)n1C2)COC(=O)[C@]3(O)CC [SN-38] (first compound max 10 µM, 7x7, partner max 0.3 µM)
Bliss excess [1]: -0.0338
Bliss excess [2]: -0.0125
Bliss excess [3]: -0.0401
Bliss excess [4]: -0.0929
Bliss excess [5]: -0.0688
Bliss excess [6]: -0.0498
Bliss excess [7]: 0.071
Bliss excess (SK-N-AS (Neuroblastoma)): 0.0144
Bliss excess [8]: -0.0142
Bliss excess [9]: -0.0371
Bliss excess [10]: 0.0337
Bliss excess [11]: 0.0673
Bliss excess [12]: 0.0615
Bliss excess [13]: -0.0549
Bliss excess [14]: 0.0321
Bliss excess [15]: -0.0554
Bliss excess [16]: 0.0034
Bliss excess [17]: 0.0291
Bliss excess [18]: -0.0363
Bliss excess [19]: -0.0337

N#Cc1cnc(Nc2cc(NC[C@H]3CNCCO3)c(C(F)(F)F)cn2)cn1 [SRA737] + Nc1ccn([C@@H]2O[C@H](CO)[C@@H](O)C2(F)F)c(=O)n1 [Gemcitabine] (first compound max 10 µM, 7x7, partner max 0.3 µM)
Bliss excess [1]: 0.0276
Bliss excess [2]: 0.0046
Bliss excess [3]: -0.0075
Bliss excess [4]: 0.0238
Bliss excess [5]: -0.0355
Bliss excess [6]: 0.0169
Bliss excess [7]: 0.0299
Bliss excess (SK-N-AS (Neuroblastoma)): -0.0283
Bliss excess [8]: 0.0236
Bliss excess [9]: 0.0039
Bliss excess [10]: 0.102
Bliss excess [11]: -0.0073
Bliss excess [12]: 0.0158
Bliss excess [13]: 0.061
Bliss excess [14]: 0.102
Bliss excess [15]: 0.0342
Bliss excess [16]: 0.0876
Bliss excess [17]: 0.0666
Bliss excess [18]: -0.0134
Bliss excess [19]: -0.0314

N#Cc1cnc(Nc2cc(NC[C@H]3CNCCO3)c(C(F)(F)F)cn2)cn1 [SRA737] + O=c1[nH]cc(F)c(=O)[nH]1 [5-Fluorouracil] (first compound max 10 µM, 7x7, partner max 20 µM)
Bliss excess [1]: 0.0735
Bliss excess [2]: -0.0463
Bliss excess [3]: 0.108
Bliss excess [4]: 0.0157
Bliss excess [5]: 0.0106
Bliss excess [6]: -0.006
Bliss excess [7]: 0.0349
Bliss excess (SK-N-AS (Neuroblastoma)): -0.0291
Bliss excess [8]: 0.0629
Bliss excess [9]: 0.0184
Bliss excess [10]: -0.0524
Bliss excess [11]: -0.0266
Bliss excess [12]: 0.059
Bliss excess [13]: -0.0476
Bliss excess [14]: 0.0472
Bliss excess [15]: 0.002
Bliss excess [16]: 0.0006
Bliss excess [17]: 0.0604
Bliss excess [18]: 0.0056
Bliss excess [19]: 0.004

C[C@@H](c1ccc2nccn2c1)n1nnc2ncc(-c3cnn(C)c3)nc21 [Savolitinib] + CC1(C)CCC(CN2CCN(c3ccc(C(=O)NS(=O)(=O)c4ccc(NCC5CCOCC5)c([N+](=O)[O-])c4)c(Oc4cnc5[nH]ccc5c4)c3)CC2)=C(c2ccc(Cl)cc2)C1 [Venetoclax] (first compound max 1 µM, 7x7, partner max 1 µM)
Bliss excess [1]: -0.0339
Bliss excess [2]: -0.0387
Bliss excess [3]: -0.0173
Bliss excess [4]: -0.046
Bliss excess [5]: -0.0624
Bliss excess [6]: -0.0679
Bliss excess [7]: -0.0398
Bliss excess (SK-N-AS (Neuroblastoma)): -0.0568
Bliss excess [8]: -0.0203
Bliss excess [9]: 0.001
Bliss excess [10]: -0.0504
Bliss excess [11]: -0.0442
Bliss excess [12]: -0.0306
Bliss excess [13]: 0.0096
Bliss excess [14]: -0.106
Bliss excess [15]: -0.0249
Bliss excess [16]: 0.0069
Bliss excess [17]: -0.0475
Bliss excess [18]: -0.0492
Bliss excess [19]: 0.0246

C[C@@H](c1ccc2nccn2c1)n1nnc2ncc(-c3cnn(C)c3)nc21 [Savolitinib] + Cc1c2c(nn1C)CSCc1cc(n(C)n1)CSc1cc(c3ccccc3c1)OCCCc1c(C(=O)O)n(C)c3c-2c(Cl)ccc13 [AZD5991] (first compound max 1 µM, 7x7, partner max 1 µM)
Bliss excess [1]: -0.0361
Bliss excess [2]: 0.0173
Bliss excess [3]: 0.0354
Bliss excess [4]: -0.0647
Bliss excess [5]: -0.0417
Bliss excess [6]: -0.0454
Bliss excess [7]: -0.0155
Bliss excess (SK-N-AS (Neuroblastoma)): -0.0749
Bliss excess [8]: 0.003
Bliss excess [9]: -0.0152
Bliss excess [10]: -0.0353
Bliss excess [11]: -0.0279
Bliss excess [12]: -0.0338
Bliss excess [13]: -0.0082
Bliss excess [14]: -0.0858
Bliss excess [15]: -0.0302
Bliss excess [16]: 0.0359
Bliss excess [17]: -0.0287
Bliss excess [18]: -0.056
Bliss excess [19]: -0.034
